Patent US7780873B2, “Bioactive complexes compositions and methods of use thereof” (Texas A&M University System, priority 2004, dated 2010)
Read-outs that look alike come from different tables or passages of the source.

Key:
[1] = rat duodenal infusion, cited from earlier work
[2] = Lipid oxidation of O/W Menhaden oil-based emulsions; type: physicochemical; conditions: gallic acid alone or with coenzyme Q10; emulsified with egg yolk PC; pH 6.0; GC
[3] = system: human promyelocytic leukemia HL-60 cells; conditions: cited from earlier work
[4] = from emulsions containing corn oil

| SMILES | average recovery in the lymph [1, 4] | average recovery in the lymph ([1]; from olive oil emulsion) | pro-/antioxidative properties of control samples [2] | apoptotic cell death [3] |
| --- | --- | --- | --- | --- |
| CC(C)=CCC/C(C)=C/C=C/C(C)=C/C=C/C(C)=C/C=C/C=C(C)/C=C/C=C(C)/C=C/C=C(\C)CCC=C(C)C [LYC, lycopene] | 2.5% | 6% |  |  |
| CC1=C(/C=C/C(C)=C/C=C/C(C)=C/C=C/C=C(C)/C=C/C=C(C)/C=C/C2=C(C)C(=O)[C@@H](O)CC2(C)C)C(C)(C)C[C@H](O)C1=O [astaxanthin] | 13% | 20% |  |  |
| O=C(O)c1cc(O)c(O)c(O)c1 [gallic acid] |  |  | prooxidative properties | induced apoptotic cell death |
